Assay [1] deals with human Cat L (Homo sapiens (Human), UniProt P07711). Nature of the assay: Cathepsin enzyme inhibition assay (human Cat L). It counts as biochemical. As to conditions: enzyme 1 nM, substrate Z-Val-Val-Arg-AMC 20 μM. On the procedure:
(§1) Cathepsin Enzyme Inhibition Assay
(§2) Enzyme activity is measured by observing the increase in fluorescence intensity caused by cleavage of a peptide substrate containing a fluorophore whose emission is quenched in the intact peptide.
(§3) Assay buffer: 100 mM potassium phosphate pH 6.5, EDTA-Na 5 mM, Triton X-100 0.001%, DTT 5 mM.
(§4) Enzymes (all at 1 nM): human and mouse Cathepsin S, Cat K, Cat B, Cat L.
(§5) Substrate (20 μM): Z-Val-Val-Arg-AMC, except for Cat K which uses Z-Leu-Arg-AMC (both from Bachem).
Excitation 360 nm, Emission 465 nm.
Enzyme is added to the substance dilutions in 96-well microtitre plates and the reaction is started with substrate. Fluorescence emission is measured over 20 minutes, during which time a linear increase is observed in the absence of inhibitor. IC50 are calculated by standard methods.
Inhibition of human Cat S, mouse Cat S, human Cat K, human Cat B, human Cat L and mouse Cat L have been measured separately. The results obtained for human Cat S and L for representative compounds of the invention are expressed in the following table in μM.

Assay [2] concerns the target human Cat S (Homo sapiens (Human), UniProt P25774). Nature of the assay: Cathepsin enzyme inhibition assay (human Cat S). The format is biochemical. As to conditions: enzyme 1 nM, substrate Z-Val-Val-Arg-AMC 20 μM. On the procedure:
as §1, §2, §3, §4, §5
Enzyme is added to the substance dilutions in 96-well microtitre plates and the reaction is started with substrate. […] IC50 are calculated by standard methods.
Inhibition of human Cat S, mouse Cat S, human Cat K, human Cat B, human Cat L and mouse Cat L have been measured separately.

From patent US8822505B2, “Azetidine derivatives” (Hoffmann-La Roche Inc., priority 2012, dated 2014) come the findings set out here.

Counter-ions that a name gives are not always drawn.

Chain of human Cat L (P07711 114-333): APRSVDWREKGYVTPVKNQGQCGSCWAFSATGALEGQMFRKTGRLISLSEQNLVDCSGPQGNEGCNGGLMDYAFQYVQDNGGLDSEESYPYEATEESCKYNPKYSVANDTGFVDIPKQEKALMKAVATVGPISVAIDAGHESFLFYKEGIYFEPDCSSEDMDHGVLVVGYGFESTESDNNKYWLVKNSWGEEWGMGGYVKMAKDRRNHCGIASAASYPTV
Chain of human Cat S (P25774 115-331): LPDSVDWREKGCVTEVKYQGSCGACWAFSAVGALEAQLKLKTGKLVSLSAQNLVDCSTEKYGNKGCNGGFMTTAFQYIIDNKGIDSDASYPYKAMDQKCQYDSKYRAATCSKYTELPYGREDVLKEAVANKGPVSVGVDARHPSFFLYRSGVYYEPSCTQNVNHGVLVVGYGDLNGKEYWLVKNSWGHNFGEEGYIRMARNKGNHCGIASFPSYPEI

Turning to `C[C@H](Oc1ccc(S(=O)(=O)[C@@H]2C[C@@H](C(=O)NC3(C#N)CC3)N(C(=O)C3(c4ncc(Br)cc4F)CN(CC(F)(F)F)C3)C2)c(Cl)c1)C(F)(F)F` [Example 52, (2S,4R)-1-[3-(5-Bromo-3-fluoro-pyridin-2-yl)-1-(2,2,2-trifluoro-ethyl)-azetidine-3-carbonyl]-4-[2-chloro-4-((S)-2,2,2-trifluoro-1-methyl-ethoxy)-benzenesulfonyl]-pyrrolidine-2-carboxylic acid (1-cyano-cyclopropyl)-amide], the results for the IC50 in assay [1] (pH 6.5) and in assay [2] (pH 6.5) were 6 nM and 1 nM, respectively.
Taken in the same sequence, the figures for `Cn1cc(-c2ccc(S(=O)(=O)[C@@H]3C[C@@H](C(=O)NC4(C#N)CC4)N(C(=O)C4(c5ncc(Cl)cc5F)CCN4)C3)c(Cl)c2)cn1` (stereo partly drawn) [Example 47, (2S,4R)-1-[2-(5-Chloro-3-fluoro-pyridin-2-yl)-azetidine-2-carbonyl]-4-[2-chloro-4-(1-methyl-1H-pyrazol-4-yl)-benzenesulfonyl]-pyrrolidine-2-carboxylic acid (1-cyano-cyclopropyl)-amide hydrochloride] were 82.1 nM and 0.791 nM.
Turning to `N#CC1(NC(=O)[C@@H]2C[C@@H](S(=O)(=O)c3ccccc3Cl)CN2C(=O)C2(c3ncc(Cl)cc3F)CNC2)CC1` [Example 12, (2S,4R)-1-(3-(5-Chloro-3-fluoropyridin-2-yl)azetidine-3-carbonyl)-4-(2-chlorophenylsulfonyl)-N-(1-cyanocyclopropyl)pyrrolidine-2-carboxamide], the IC50 turned out to be 23.6 nM in assay [1] (pH 6.5) and 1.07 nM in assay [2] (pH 6.5).
For the compound `CC(C)(C)OC(=O)N1CCC1(C(=O)N1C[C@H](S(=O)(=O)c2ccc(F)cc2Cl)C[C@H]1C(=O)NC1(C#N)CC1)c1ncc(Br)cc1F` (stereo partly drawn) [Example 22, 2-(5-Bromo-3-fluoro-pyridin-2-yl)-2-[(2S,4R)-4-(2-chloro-4-fluoro-benzenesulfonyl)-2-(1-cyano-cyclopropylcarbamoyl)-pyrrolidine-1-carbonyl]-azetidine-1-carboxylic acid tert-butyl ester], the values for the IC50 in assay [1] (pH 6.5) and in assay [2] (pH 6.5) were 1020 nM and 1.26 nM, respectively.
`N#CC1(NC(=O)[C@@H]2C[C@@H](S(=O)(=O)c3ccc(OCC(F)(F)F)cc3Cl)CN2C(=O)C2(c3ccc(Br)cn3)CNC2)CC1` [Example 7, (2S,4R)-1-[3-(5-Bromo-pyridin-2-yl)-azetidine-3-carbonyl]-4-[2-chloro-4-(2,2,2-trifluoro-ethoxy)-benzenesulfonyl]-pyrrolidine-2-carboxylic acid (1-cyano-cyclopropyl)-amide]: the IC50 in assay [1] (pH 6.5) stood at 73.5 nM; in assay [2] (pH 6.5) it was 3.82 nM.
For the compound `C[C@H](Oc1ccc(S(=O)(=O)[C@@H]2C[C@@H](C(=O)NC3(C#N)CC3)N(C(=O)C3(c4ncc(Br)cc4F)CN(C=O)C3)C2)c(Cl)c1)C(F)(F)F` [Example 50, (2S,4R)-1-[3-(5-Bromo-3-fluoro-pyridin-2-yl)-1-formyl-azetidine-3-carbonyl]-4-[2-chloro-4-((S)-2,2,2-trifluoro-1-methyl-ethoxy)-benzenesulfonyl]-pyrrolidine-2-carboxylic acid (1-cyano-cyclopropyl)-amide], the results for the IC50 in assay [1] (pH 6.5) and in assay [2] (pH 6.5) were 5 nM and 0.9 nM, respectively.
Consider `C[C@H](Oc1ccc(S(=O)(=O)[C@@H]2C[C@@H](C(=O)NC3(C#N)CC3)N(C(=O)C3(c4ncc(Br)cc4F)CN(CC(F)F)C3)C2)c(Cl)c1)C(F)(F)F` [Example 49, (2S,4R)-1-[3-(5-Bromo-3-fluoro-pyridin-2-yl)-1-(2,2-difluoro-ethyl)-azetidine-3-carbonyl]-4-[2-chloro-4-((S)-2,2,2-trifluoro-1-methyl-ethoxy)-benzenesulfonyl]-pyrrolidine-2-carboxylic acid (1-cyano-cyclopropyl)-amide], for which the concentration for half-maximal inhibition (IC50) was 5 nM in assay [1] (pH 6.5) and 1 nM in assay [2] (pH 6.5).
With `CC(C)(C)OC(=O)N1CCC1(C(=O)N1C[C@H](S(=O)(=O)c2ccc(F)cc2Cl)C[C@H]1C(=O)NC1(C#N)CC1)c1ncc(Cl)cc1F` (stereo partly drawn) [Example 21, 2-[(2S,4R)-4-(2-Chloro-4-fluoro-benzenesulfonyl)-2-(1-cyano-cyclopropylcarbamoyl)-pyrrolidine-1-carbonyl]-2-(5-chloro-3-fluoro-pyridin-2-yl)-azetidine-1-carboxylic acid tert-butyl ester], the values for the IC50 in assay [1] (pH 6.5) and in assay [2] (pH 6.5) were 1340 nM and 1.04 nM, respectively.
Regarding `Cc1cc(-c2ccc(S(=O)(=O)[C@@H]3C[C@@H](C(=O)NC4(C#N)CC4)N(C(=O)C4(c5ncc(Br)cc5F)CCN4C(=O)OC(C)(C)C)C3)c(Cl)c2)ccn1` (stereo partly drawn) [Example 42, 2-(5-Bromo-3-fluoro-pyridin-2-yl)-2-[(2S,4R)-4-[2-chloro-4-(2-methyl-pyridin-4-yl)-benzenesulfonyl]-2-(1-cyano-cyclopropylcarbamoyl)-pyrrolidine-1-carbonyl]-azetidine-1-carboxylic acid tert-butyl ester], the IC50 was found to be 662 nM in assay [1] (pH 6.5) and 4.6 nM in assay [2] (pH 6.5).
With `CC(C)(C)OC(=O)N1CC(C(=O)N2C[C@H](S(=O)(=O)c3ccccc3Cl)C[C@H]2C(=O)NC2(C#N)CC2)(c2ncc(Cl)cc2F)C1` [Example 10, 3-[(2S,4R)-4-(2-Chloro-benzenesulfonyl)-2-(1-cyano-cyclopropylcarbamoyl)-pyrrolidine-1-carbonyl]-3-(5-chloro-3-fluoro-pyridin-2-yl)-azetidine-1-carboxylic acid tert-butyl ester], the IC50 is 194 nM in assay [1] (pH 6.5) and 1.26 nM in assay [2] (pH 6.5).
Turning to `C[C@H](Oc1ccc(S(=O)(=O)[C@@H]2C[C@@H](C(=O)NC3(C#N)CC3)N(C(=O)C3(c4ncc(Cl)cc4F)CCN3)C2)c(Cl)c1)C(F)(F)F` (stereo partly drawn) [Example 38, (2S,4R)-1-[2-(5-Chloro-3-fluoro-pyridin-2-yl)-azetidine-2-carbonyl]-4-[2-chloro-4-((S)-2,2,2-trifluoro-1-methyl-ethoxy)-benzenesulfonyl]-pyrrolidine-2-carboxylic acid (1-cyano-cyclopropyl)-amide hydrochloride], the IC50 was 317 nM in assay [1] (pH 6.5, hydrochloride) and 4.16 nM in assay [2] (pH 6.5, hydrochloride).
